One assay addresses T1, HDAC1 (Homo sapiens, UniProt Q13547).
T1 construct: purchased Enzolifesciences BML-AK511
Kind of assay: Inhibition of HDAC1 activity (HDAC1 fluorimetric drug discovery assay kit). To be noted: test concentrations 100, 1000 and 10000 nM; 37° C., 60 minutes. The assay is classed as biochemical. The method, then:
(§1) Assays were performed using a HDAC1 fluorimetric drug discovery assay kit (Enzolifesciences: BML-AK511) and a HDAC6 human recombinant (Calbiochem: 382180). The assay mixture of the kit was treated with a test compound at concentrations of 100, 1000 and 10000 nM for HDAC1 assay and concentrations of 0.1, 1, 10, 100 and 1000 nM for HDAC6 assay. The treated assay mixture was allowed to react at 37° C. for 60 minutes, and then was treated with a developer and allowed to stand at 37° C. for 30 minutes, followed by quantification of the fluorescence.

A further assay has as its target T2, HDAC6 human recombinant (Homo sapiens, UniProt Q9UBN7).
T2 construct: purchased Calbiochem 382180
T2 sequence (Q9UBN7 1-1215): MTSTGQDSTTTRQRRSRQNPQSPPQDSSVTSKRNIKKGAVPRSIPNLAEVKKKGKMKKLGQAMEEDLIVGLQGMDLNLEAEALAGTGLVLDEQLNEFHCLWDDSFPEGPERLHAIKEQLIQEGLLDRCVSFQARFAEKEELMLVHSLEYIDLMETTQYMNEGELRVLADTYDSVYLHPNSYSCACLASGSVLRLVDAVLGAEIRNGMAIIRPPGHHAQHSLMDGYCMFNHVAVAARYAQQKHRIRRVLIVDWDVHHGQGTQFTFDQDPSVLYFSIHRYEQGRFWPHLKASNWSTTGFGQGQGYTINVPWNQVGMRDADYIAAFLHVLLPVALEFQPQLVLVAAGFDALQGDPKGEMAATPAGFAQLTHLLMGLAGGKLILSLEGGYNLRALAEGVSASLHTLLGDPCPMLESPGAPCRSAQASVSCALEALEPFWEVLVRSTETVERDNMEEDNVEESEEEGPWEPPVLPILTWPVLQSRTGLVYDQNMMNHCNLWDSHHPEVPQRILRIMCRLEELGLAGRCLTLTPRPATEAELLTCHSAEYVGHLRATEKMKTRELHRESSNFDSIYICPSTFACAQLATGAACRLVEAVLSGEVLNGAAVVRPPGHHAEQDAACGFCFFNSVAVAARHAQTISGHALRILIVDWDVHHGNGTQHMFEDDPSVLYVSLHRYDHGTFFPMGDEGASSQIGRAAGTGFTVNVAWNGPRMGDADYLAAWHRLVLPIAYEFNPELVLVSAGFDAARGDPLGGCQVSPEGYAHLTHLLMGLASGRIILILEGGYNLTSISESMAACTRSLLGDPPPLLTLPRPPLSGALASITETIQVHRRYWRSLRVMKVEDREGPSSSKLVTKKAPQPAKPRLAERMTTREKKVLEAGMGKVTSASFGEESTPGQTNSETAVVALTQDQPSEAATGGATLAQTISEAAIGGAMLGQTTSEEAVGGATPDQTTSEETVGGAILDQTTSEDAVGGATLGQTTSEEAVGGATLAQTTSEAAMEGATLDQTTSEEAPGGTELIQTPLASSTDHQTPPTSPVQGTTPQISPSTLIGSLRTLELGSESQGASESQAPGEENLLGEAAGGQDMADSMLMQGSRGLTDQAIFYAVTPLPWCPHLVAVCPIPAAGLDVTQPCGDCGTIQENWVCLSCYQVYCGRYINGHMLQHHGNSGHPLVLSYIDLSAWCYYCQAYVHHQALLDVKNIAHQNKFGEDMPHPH
The assay is described as follows: Inhibition of HDAC6 activity (fluorimetric assay). The assay is classed as biochemical. The following applies: test concentrations 0.1, 1, 10, 100 and 1000 nM; 37° C., 60 minutes. On the procedure:
as §1

The structures appear in SMILES notation. pIC50: −log10 of the molar value.

What is called pIC50 is the negative decadic logarithm of the IC50, by convention in mol/L.

T1 sequence (Q13547 whole entry): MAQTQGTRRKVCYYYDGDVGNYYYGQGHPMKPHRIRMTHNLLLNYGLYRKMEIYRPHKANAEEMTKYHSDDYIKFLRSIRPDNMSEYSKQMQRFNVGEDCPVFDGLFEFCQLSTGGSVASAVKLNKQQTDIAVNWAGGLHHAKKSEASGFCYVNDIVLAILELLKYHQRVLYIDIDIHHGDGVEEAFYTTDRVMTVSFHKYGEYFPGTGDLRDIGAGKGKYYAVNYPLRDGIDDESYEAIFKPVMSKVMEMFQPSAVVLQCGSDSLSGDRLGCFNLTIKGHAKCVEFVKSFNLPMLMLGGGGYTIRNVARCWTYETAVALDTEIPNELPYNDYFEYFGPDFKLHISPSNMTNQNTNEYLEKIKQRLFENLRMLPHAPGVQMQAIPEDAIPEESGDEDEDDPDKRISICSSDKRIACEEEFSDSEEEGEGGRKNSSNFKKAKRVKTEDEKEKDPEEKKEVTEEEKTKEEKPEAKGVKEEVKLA

As to `Cn1ncc2ccc(-c3cnc4c(ccn4Cc4ccc(C(=O)NO)cc4)c3)cc21` [Compound 685, N-hydroxy-4-((5-(1-methyl-1H-indazol-6-yl)-1H-pyrrolo[2,3-b]pyridin-1-yl)methyl)benzamide], the pIC50 was 6.10 against HDAC1 and 8.22 at HDAC6 human recombinant.
On the same counts, the results for `O=C(NO)c1ccc(Cn2ccc3cc(C4CCN(Cc5noc(C(F)(F)F)n5)CC4)cnc32)cc1` [Compound 845, N-hydroxy-4-((5-(1-((5-(trifluoromethyl)-1,2,4-oxadiazol-3-yl)methyl)piperidin-4-yl)-1H-pyrrolo[2,3-b]pyridin-1-yl)methyl)benzamide] are 6.52 and 8.92.
As for `O=C(NO)c1ccc(Cn2ccc3c(-c4ccncc4)ccnc32)cc1` [Compound 657, N-hydroxy-4-((4-(pyridin-4-yl)-1H-pyrrolo[2,3-b]pyridin-1-yl)methyl)benzamide], the pIC50 is 6.33 against HDAC1 and 8.05 on HDAC6 human recombinant.
As to `CN1CCN(Cc2cccc(CN3CCC(c4cnc5c(ccn5Cc5ccc(C(=O)NO)cc5)c4)CC3)c2)CC1` [Compound 879, N-hydroxy-4-((5-(1-(3-((4-methylpiperazin-1-yl)methyl)benzyl)piperidin-4-yl)-1H-pyrrolo[2,3-b]pyridin-1-yl)methyl)benzamide], the results for the pIC50 against HDAC1 and at HDAC6 human recombinant were 5.98 and 8.12, respectively.
For `COc1ccc(CN2CCC(c3cnc4c(ccn4Cc4ccc(C(=O)NO)cc4)c3)CC2)cc1` [Compound 830, N-hydroxy-4-((5-(1-(4-methoxybenzyl)piperidin-4-yl)-1H-pyrrolo[2,3-b]pyridin-1-yl)methyl)benzamide], in that order: 5.72 and 7.89.
Take `CN1CCN(c2ccnc3c2ccn3Cc2ccc(C(=O)NO)cc2)CC1` [Compound 224, N-hydroxy-4-((4-(4-methylpiperazin-1-yl)-1H-pyrrolo[2,3-b]pyridin-1-yl)methyl)benzamide]: the pIC50 on HDAC1 was 6.74; at HDAC6 human recombinant, 8.70.
With `C[C@@H]1CN(c2cnc3c(ccn3Cc3ccc(C(=O)NO)cc3)c2)C[C@H](C)N1Cc1cccc(F)c1` [Compound 857, 4-((5-((3S,5R)-4-(3-fluorobenzyl)-3,5-dimethylpiperazin-1-yl)-1H-pyrrolo[2,3-b]pyridin-1-yl)methyl)-N-hydroxybenzamide], the pIC50 against HDAC1 was 5.67; on HDAC6 human recombinant it was 7.61.
As to `O=C(NO)c1ccc(Cn2ccc3cc(C4CCN(S(=O)(=O)c5ccccc5)CC4)cnc32)cc1` [Compound 876, N-hydroxy-4-((5-(1-(phenylsulfonyl)piperidin-4-yl)-1H-pyrrolo[2,3-b]pyridin-1-yl)methyl)benzamide], the figures for the pIC50 against HDAC1 and at HDAC6 human recombinant were 5.55 and 7.38, respectively.
As to `O=C(NO)c1ccc(Cn2ccc3cc(C4CCN(Cc5ccccn5)CC4)cnc32)cc1` [Compound 844], the pIC50 is 6.26 at HDAC1 and 8.47 at HDAC6 human recombinant.
Consider `CC(C)(C)OC(=O)N1CCC(c2cnc3c(ccn3Cc3ccc(C(=O)NO)cc3)c2)CC1` [Compound 694, tert-butyl 4-(1-(4-(hydroxycarbamoyl)benzyl)-1H-pyrrolo[2,3-b]pyridin-5-yl)piperidine-1-carboxylate], for which the values for the pIC50 against HDAC1 and on HDAC6 human recombinant were 5.29 and 7.55, respectively.
On the same counts, the results for `CC(C)(F)CN1CCN(Cc2ccc(-c3ccnc4c3ccn4Cc3ccc(C(=O)NO)cc3)cc2)CC1` [Compound 763, 4-((4-(4-((4-(2-fluoro-2-methylpropyl)piperazin-1-yl)methyl)phenyl)-1H-pyrrolo[2,3-b]pyridin-1-yl)methyl)-N-hydroxybenzamide] are 5.38 and 6.52.
`O=C(NO)c1ccc(Cn2ccc3cc(C4CCN(Cc5ccc(F)cc5)CC4)cnc32)cc1` [Compound 843, 4-((5-(1-(4-fluorobenzyl)piperidin-4-yl)-1H-pyrrolo[2,3-b]pyridin-1-yl)methyl)-N-hydroxybenzamide]: the pIC50 against HDAC1 is 6.11; at HDAC6 human recombinant, 7.85.
For `O=C(NO)c1ccc(Cn2ccc3cc(C4CCN(C(=O)c5ccc(CN6CCOCC6)cc5)CC4)cnc32)cc1` [Compound 897, N-hydroxy-4-((5-(1-(4-(morpholinomethyl)benzoyl)piperidin-4-yl)-1H-pyrrolo[2,3-b]pyridin-1-yl)methyl)benzamide], the values for the pIC50 against HDAC1 and on HDAC6 human recombinant were 5.96 and 8.13, respectively.
`CC(C)CN1CCC(c2cnc3c(ccn3Cc3ccc(C(=O)NO)cc3)c2)CC1` [Compound 863, N-hydroxy-4-((5-(1-isobutylpiperidin-4-yl)-1H-pyrrolo[2,3-b]pyridin-1-yl)methyl)benzamide]: the pIC50 is 5.95 at HDAC1 and 7.94 at HDAC6 human recombinant.
As for `CC(C)(O)CN1CC2(CCN(c3cnc4c(ccn4Cc4ccc(C(=O)NO)cc4)c3)CC2)C1` [Compound 956, N-hydroxy-4-((5-(2-(2-hydroxy-2-methylpropyl)-2,7-diazaspiro[3.5]nanan-7-yl)-1H-pyrrolo[2,3-b]pyridin-1-yl)methyl)benzamide], the pIC50 is 6.08 against HDAC1 and 8.43 on HDAC6 human recombinant.
For `O=C(NO)c1ccc(Cn2ccc3cc(C4CCNCC4)cnc32)cc1` [Compound 715, N-hydroxy-4-((5-(piperidin-4-yl)-1H-pyrrolo[2,3-b]pyridin-1-yl)methyl)benzamide], in that order: 6.27 and 8.10.
On the same counts, the results for `O=C(NO)c1ccc(Cn2ccc3ccc(C4CCN(Cc5cccnc5)CC4)nc32)cc1` [Compound 992, N-hydroxy-4-((6-(1-(pyridin-3-ylmethyl)piperidin-4-yl)-1H-pyrrolo[2,3-b]pyridin-1-yl)methyl)benzamide] are 6.07 and 7.47.
For `CC(C)(O)CN1C2CCC1CN(c1ccnc3c1ccn3Cc1ccc(C(=O)NO)cc1)C2` [Compound 1017, N-hydroxy-4-((4-(8-(2-hydroxy-2-methylpropyl)-3,8-diazabicyclo[3.2.1]octan-3-yl)-1H-pyrrolo[2,3-b]pyridin-1-yl)methyl)benzamide], in that order: 6.66 and 8.22.
On to `O=C(NO)c1ccc(Cn2ccc3cc(C4CCN(Cc5ccccc5F)CC4)cnc32)cc1` [Compound 839, 4-((5-(1-(2-fluorobenzyl)piperidin-4-yl)-1H-pyrrolo[2,3-b]pyridin-1-yl)methyl)-N-hydroxybenzamide], for which the pIC50 on HDAC1 is 5.72; on HDAC6 human recombinant, 7.76.
On the same counts, the results for `C[C@@H]1CN(c2ccnc3c2ccn3Cc2ccc(C(=O)NO)cc2)C[C@H](C)N1Cc1ccccc1` [Compound 990, 4-((4-((3S,5R)-4-benzyl-3,5-dimethylpiperazin-1-yl)-1H-pyrrolo[2,3-b]pyridin-1-yl)methyl)-N-hydroxybenzamide] are 5.87 and 8.34.
Consider `CCc1cnc(N2CCN(c3ccnc4c3ccn4Cc3ccc(C(=O)NO)cc3)CC2)nc1` [Compound 702, 4-((4-(4-(5-ethylpyrimidin-2-yl)piperazin-1-yl)-1H-pyrrolo[2,3-b]pyridin-1-yl)methyl)-N-hydroxybenzamide], for which the pIC50 is 5.98 at HDAC1 and 7.80 at HDAC6 human recombinant.
Consider `CC(C)(C)CCN1CCC(c2cnc3c(ccn3Cc3ccc(C(=O)NO)cc3)c2)CC1` [Compound 864, 4-((5-(1-(3,3-dimethylbutyl)piperidin-4-yl)-1H-pyrrolo[2,3-b]pyridin-1-yl)methyl)-N-hydroxybenzamide], for which the figures for the pIC50 at HDAC1 and on HDAC6 human recombinant were 5.76 and 7.74, respectively.
As to `CCN1CCN(c2ccnc3c2ccn3Cc2ccc(C(=O)NO)cc2)CC1` [Compound 223, 4-((4-(4-ethylpiperazin-1-yl)-1H-pyrrolo[2,3-b]pyridin-1-yl)methyl)-N-hydroxybenzamide], the pIC50 at HDAC1 was 6.42; at HDAC6 human recombinant it was 8.15.
